The source of these data is patent US11666056B2, “Methods and compositions for control of arthropod pests” (GREENLIGHT BIOSCIENCES, INC., priority 2019, dated 2023).

Each structure is given as a SMILES string.

Data set [1] can be described thus: Measured pH of preservative working solutions and of tested formulations. Format: physicochemical. The protocol:
Separate working solutions of sodium benzoate and potassium sorbate are prepared in citric buffer (pH 5.3) and pH is measured as shown in Table 3.
Five formulations (Table 7) using the citric buffer of Example 1A and the preservatives of Example 1B were tested to determine the stability of the trigger nucleic acid molecule (SEQ ID NO: 1) in a) only sucrose (control); b) sucrose with preservatives; c) sucrose and citric buffer; d) sucrose with equal amounts of each preservative in citric buffer; and e) sucrose with sodium benzoate to potassium sorbate in a 1:0.5 ratio in citric buffer.
Four additional formulations were created to test the ability of sodium benzoate alone to protect a dsRNA from degradation. Sodium benzoate was prepared in a solution with a pH of 4.5.

For data set [2] the following is noted: citric buffer (pH 5.3).
[3] abbreviates: preservative 50 mg/mL in citric buffer (pH 5.3).

Consider `O=C([O-])c1ccccc1.[Na+]` [Sodium Benzoate], for which the pH in data set [1] (setting [3]) was 5.47; in data set [1] (preservative 100 mg/mL in citric buffer), 5.7.

Regarding `C/C=C/C=C/C(=O)[O-].[K+]` [Potassium Sorbate], the pH in data set [1] (setting [3]) is on record as 6.13; in data set [1] (preservative 100 mg/mL in ddH2O) it was 8.8. Also, the “solubility in citric buffer” value in data set [2] was “low solubility”.
